Reference: PubChem BioAssay AID274 (DTP/NCI, 2004)
Where “and” joins values, the source holds several entries; their conditions need not be identical. Identical values can stand only once. Inconclusive results and toxic doses are left out. Rule for the calls: active = survival T/C of 150% or more; inactive = T/C below 125% in these data.

Tested on: BDF1 mice, Lewis lung carcinoma iv, survival T/C
Assay: NCI In Vivo Anticancer Drug Screen. Data for tumor model Lewis Lung Carcinoma (intravenous) in B6D2F1 (BDF1) mice
Settings: endpoint: median survival time, higher = longer survival
Procedure: The antitumor activity of compounds was measured in mice bearing transplantable tumors. Survival or tumor size were measured and the results are expressed as the measurement made in the treated group (T) divided by the measurement made in the vehicle treated control group (C). The tumor model used in this assay is Lewis Lung Carcinoma (intravenous) in B6D2F1 (BDF1) mice

Measured: T/C

CC[C@@]1(O)C[C@H](OC2CC(N(C)C)C(OC3CC(O)C(OC4CCC(=O)C(C)O4)C(C)O3)C(C)O2)c2c(cc3c(c2O)C(=O)c2c(O)ccc(O)c2C3=O)[C@H]1C(=O)OC (stereo not given in full)
inactive: dose: 0.12 mg/kg/injection, schedule: Q01DX009 (ip), vehicle: water 103 % of control | dose: 0.25 mg/kg/injection, schedule: Q01DX009 (ip), vehicle: water 103 % of control and 107 % of control | dose: 0.5 mg/kg/injection, schedule: Q01DX009 (ip), vehicle: water 96 % of control and 101 % of control | dose: 0.88 mg/kg/injection, schedule: Q01DX009 (ip), vehicle: water 117 % of control | dose: 1.0 mg/kg/injection, schedule: Q01DX009 (ip), vehicle: water 103 % of control | dose: 1.7 mg/kg/injection, schedule: Q04DX003 (ip), vehicle: water 94 % of control | dose: 1.92 mg/kg/injection, schedule: Q04DX003 (ip), vehicle: water 110 % of control | dose: 2.9 mg/kg/injection, schedule: Q04DX003 (ip), vehicle: water 100 % of control and 117 % of control | dose: 3.9 mg/kg/injection, schedule: Q04DX003 (ip), vehicle: water 118 % of control | dose: 4.8 mg/kg/injection, schedule: Q01DX001 (ip), vehicle: water 109 % of control | dose: 4.8 mg/kg/injection, schedule: Q04DX003 (ip), vehicle: water 109 % of control and 122 % of control | dose: 6.86 mg/kg/injection, schedule: Q01DX001 (ip), vehicle: water 123 % of control | dose: 8.0 mg/kg/injection, schedule: Q04DX003 (ip), vehicle: water 104 % of control | dose: 13.3 mg/kg/injection, schedule: Q04DX003 (ip), vehicle: water 86 % of control

COc1c2occc2cc2ccc(=O)oc12
inactive: dose: 8.0 mg/kg/injection, schedule: Q01DX009 (ip), vehicle: saline with Tween-80 109 % of control | dose: 16.0 mg/kg/injection, schedule: Q01DX009 (ip), vehicle: saline with Tween-80 109 % of control | dose: 32.0 mg/kg/injection, schedule: Q01DX009 (ip), vehicle: saline with Tween-80 96 % of control | dose: 64.0 mg/kg/injection, schedule: Q01DX009 (ip), vehicle: saline with Tween-80 113 % of control | dose: 128.0 mg/kg/injection, schedule: Q01DX009 (ip), vehicle: saline with Tween-80 110 % of control

CNC=O
inactive: dose: 100.0 mg/kg/injection, schedule: Q01DX009 (ip), vehicle: saline sonified 106 % of control | dose: 200.0 mg/kg/injection, schedule: Q01DX009 (ip), vehicle: saline sonified 114 % of control | dose: 400.0 mg/kg/injection, schedule: Q01DX009 (ip), vehicle: saline sonified 115 % of control

COc1ccc(CCNC(C)=O)cc1OC
inactive: dose: 25.0 mg/kg/injection, schedule: Q01DX009 (ip), vehicle: Klucel (hydroxypropylcellulose) (HPC) 90 % of control | dose: 50.0 mg/kg/injection, schedule: Q01DX009 (ip), vehicle: Klucel (hydroxypropylcellulose) (HPC) 94 % of control | dose: 100.0 mg/kg/injection, schedule: Q01DX009 (ip), vehicle: Klucel (hydroxypropylcellulose) (HPC) 103 % of control | dose: 200.0 mg/kg/injection, schedule: Q01DX009 (ip), vehicle: Klucel (hydroxypropylcellulose) (HPC) 105 % of control

CC(=O)OCC12C3CC(=O)OC1C(OC(=O)C=C(C)C)C1C(C)=CC(=O)C(OC(C)=O)C1(C)C2C(=O)C(OC(C)=O)C3C (stereo not given)
inactive: dose: 0.25 mg/kg/injection, schedule: Q01DX009 (ip), vehicle: saline 86 % of control | dose: 0.5 mg/kg/injection, schedule: Q01DX009 (ip), vehicle: saline 107 % of control | dose: 1.0 mg/kg/injection, schedule: Q01DX009 (ip), vehicle: saline 91 % of control | dose: 2.0 mg/kg/injection, schedule: Q01DX009 (ip), vehicle: saline 102 % of control | dose: 4.0 mg/kg/injection, schedule: Q01DX009 (ip), vehicle: saline 113 % of control

CC1CCOS(=O)O1 (stereo not given)
inactive: dose: 10.0 mg/kg/injection, schedule: Q01DX009 (ip), vehicle: saline 100 % of control | dose: 20.0 mg/kg/injection, schedule: Q01DX009 (ip), vehicle: saline 94 % of control | dose: 40.0 mg/kg/injection, schedule: Q01DX009 (ip), vehicle: saline 95 % of control

O=[N+]([O-])c1cc([N+](=O)[O-])c(Nn2c3ccccc3c3ccccc32)c([N+](=O)[O-])c1
inactive: dose: 12.5 mg/kg/injection, schedule: Q01DX009 (ip), vehicle: saline with Tween-80 114 % of control | dose: 25.0 mg/kg/injection, schedule: Q01DX009 (ip), vehicle: saline with Tween-80 105 % of control | dose: 50.0 mg/kg/injection, schedule: Q01DX009 (ip), vehicle: saline with Tween-80 91 % of control

C/C=C(\C)c1cc(=O)c2c(C)cc3c(c2o1)C(=O)c1c(O)c(C2CC(C)(N(C)C)C(OC(C)=O)C(C)O2)cc(C2CC(N(C)C)C(O)C(C)O2)c1C3=O (stereo not given)
inactive: dose: 0.15 mg/kg/injection, schedule: Q01DX009 (ip), vehicle: saline 104 % of control | dose: 0.31 mg/kg/injection, schedule: Q01DX009 (ip), vehicle: saline 101 % of control | dose: 0.62 mg/kg/injection, schedule: Q01DX009 (ip), vehicle: saline 107 % of control | dose: 1.25 mg/kg/injection, schedule: Q01DX009 (ip), vehicle: saline 98 % of control | dose: 2.5 mg/kg/injection, schedule: Q01DX009 (ip), vehicle: saline 103 % of control | dose: 5.0 mg/kg/injection, schedule: Q01DX009 (ip), vehicle: saline 119 % of control

CCc1ncnc2cc(OCC3CO3)c(OC)cc12 (stereo not given)
inactive: dose: 6.25 mg/kg/injection, schedule: Q01DX009 (ip), vehicle: suspension in saline 98 % of control | dose: 12.5 mg/kg/injection, schedule: Q01DX009 (ip), vehicle: suspension in saline 104 % of control | dose: 25.0 mg/kg/injection, schedule: Q01DX009 (ip), vehicle: suspension in saline 93 % of control

O=S(=O)(O)O.[NH-]C1CCCCC1[NH-].[Pt+2] (stereo not given)
inactive: dose: 0.63 mg/kg/injection, schedule: Q01DX009 (ip), vehicle: dextrose 101 % of control | dose: 1.25 mg/kg/injection, schedule: Q01DX009 (ip), vehicle: dextrose 110 % of control

O=C(N/N=C/c1ccccc1O)c1ccncc1
inactive: dose: 108.0 mg/kg/injection, schedule: Q01DX007 (ip), vehicle: Klucel (hydroxypropylcellulose) (HPC) 95 % of control | dose: 154.4 mg/kg/injection, schedule: Q01DX007 (ip), vehicle: Klucel (hydroxypropylcellulose) (HPC) 99 % of control | dose: 220.5 mg/kg/injection, schedule: Q01DX007 (ip), vehicle: Klucel (hydroxypropylcellulose) (HPC) 89 % of control | dose: 315.0 mg/kg/injection, schedule: Q01DX007 (ip), vehicle: Klucel (hydroxypropylcellulose) (HPC) 89 % of control

C=C(C)/C([O-])=N/[N+](C)(C)CC(O)CCCCCCCCCCCC (stereo not given)
inactive: dose: 12.5 mg/kg/injection, schedule: Q01DX001 (ip), vehicle: saline 99 % of control | dose: 50.0 mg/kg/injection, schedule: Q01DX001 (ip), vehicle: saline 86 % of control | dose: 100.0 mg/kg/injection, schedule: Q01DX001 (ip), vehicle: saline 92 % of control | dose: 200.0 mg/kg/injection, schedule: Q01DX001 (ip), vehicle: saline 104 % of control | dose: 400.0 mg/kg/injection, schedule: Q01DX001 (ip), vehicle: saline 87 % of control

CC(=O)OCC1OC(n2ccc(N)nc2=O)C(OC(C)=O)C1OC(C)=O (stereo not given)
inactive: dose: 12.5 mg/kg/injection, schedule: Q01DX009 (ip), vehicle: saline 122 % of control | dose: 25.0 mg/kg/injection, schedule: Q01DX009 (ip), vehicle: saline 98 % of control | dose: 50.0 mg/kg/injection, schedule: Q01DX009 (ip), vehicle: saline 109 % of control

C=CCCC(=O)CCCC(=O)O[C@@H]1[C@@H]2[C@H](CC1(C)C)[C@H](O)[C@@]13O[C@@H]1[C@H](O)[C@@]1(CO1)[C@@]23C
inactive: dose: 6.2 micrograms/kg/injection, schedule: Q01DX009 (ip), vehicle: Klucel (hydroxypropylcellulose) (HPC) 116 % of control | dose: 12.5 micrograms/kg/injection, schedule: Q01DX009 (ip), vehicle: Klucel (hydroxypropylcellulose) (HPC) 120 % of control | dose: 25.0 micrograms/kg/injection, schedule: Q01DX009 (ip), vehicle: Klucel (hydroxypropylcellulose) (HPC) 107 % of control | dose: 50.0 micrograms/kg/injection, schedule: Q01DX009 (ip), vehicle: Klucel (hydroxypropylcellulose) (HPC) 112 % of control

CC[PH+](CC)CC[S-].CC[PH+](CC)CC[S-].[Au+].[Au+]
inactive: dose: 2.5 mg/kg/injection, schedule: Q01DX009 (ip), vehicle: Klucel (hydroxypropylcellulose) (HPC) 115 % of control | dose: 5.0 mg/kg/injection, schedule: Q01DX009 (ip), vehicle: Klucel (hydroxypropylcellulose) (HPC) 102 % of control | dose: 10.0 mg/kg/injection, schedule: Q01DX009 (ip), vehicle: Klucel (hydroxypropylcellulose) (HPC) 109 % of control | dose: 20.0 mg/kg/injection, schedule: Q01DX009 (ip), vehicle: Klucel (hydroxypropylcellulose) (HPC) 114 % of control | dose: 40.0 mg/kg/injection, schedule: Q01DX009 (ip), vehicle: Klucel (hydroxypropylcellulose) (HPC) 102 % of control | dose: 80.0 mg/kg/injection, schedule: Q01DX009 (ip), vehicle: Klucel (hydroxypropylcellulose) (HPC) 109 % of control
